25 molecules from ChEMBL document CHEMBL1201862, “PubChem BioAssay data set” (2004) can be followed below.

Common to all, as to test: growth of human tumour cells (NCI), 48 h
For assay [1], the system named is Hs-578T.
The subject of assay [2] is T47D.
In assay [3] the test system is BT-549.
Assay [4] has as its system DMS-114.
Assay [5] deals with DLD-1.
Assay [6] relates to M19-MEL.
Assay [7] deals with HOP-18.

SMILES strings stand for the structures.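 Compound exposure: 48 hours, 5 concentrations, 96-well plates. Here, GI50 denotes the concentration required for 50% inhibition of growth.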 Active and inactive are the calls of the source. Rule as the data show it: active = GI50 up to about 1.1 µM and inactive = higher. Where a SMILES comes first, the peptide text is derived from it. [ ]: non-standard residue; d: D form. The star is where a group is joined. Octanoyl = CCCCCCCC(=O)*; Aib = CC(C)(N)C(=O)O; tBu = CC(C)(C)*

In the case of `C=Cc1ccccc1C1(O)C=CC(OC)(OC)C=C1`, the GI50 in assay [1] is 21.4 µM (inactive); in assay [2] it was 22.2 µM (inactive).

On to `COCCN(C(=O)c1ccccc1)C1CCC2(SCCS2)c2[nH]c3ccccc3c21` (stereo not drawn), for which, in assay [1], the GI50 is 29.4 µM (inactive).

With `COc1ccc(-c2nc3ncccn3c2-c2ccc(SC)cc2)cc1`, the GI50 is 1.74 µM (inactive) in assay [1] and 1.45 µM (inactive) in assay [3].

Consider `C=CC(C)(C)N[C@@H](C(=O)N1CCC[C@H]1c1nc(-c2nc(C(=O)OCC=C(C)C)c(C)o2)c(C)o1)C(C)C`, for which the results for the GI50 in assay [1], in assay [3] and in assay [2] were 18 µM (inactive), 23.6 µM (inactive) and 21.3 µM (inactive), respectively.

Regarding `COc1ccc(C2C(C(=O)c3ccccc3)=C(O)C(O)(CC(=O)c3ccccc3)N2c2ccc(OC)cc2)cc1` (stereo not drawn), the GI50 in assay [1] is 28.6 µM (inactive); in assay [3], 7.55 µM (inactive); in assay [2], 18.5 µM (inactive).

Turning to `CCN(CC)c1ccc(Cl)c2c1C(O)(C(C)C)C2(C)C` (stereo not drawn), the GI50 was 21.2 µM (inactive) in assay [4], 17.4 µM (inactive) in assay [5], 14.7 µM (inactive) in assay [6] and 14 µM (inactive) in assay [7].

`O=c1/c(=C/c2ccc(-c3ccc(Cl)cc3Cl)o2)sc2n1[C@@H](c1ccc(Cl)cc1)C=C(c1cc(F)c(Cl)cc1Cl)N=2`: the results for the GI50 in assay [1], in assay [3] and in assay [2] were 29.6 µM (inactive), 45.8 µM (inactive) and 19.2 µM (inactive), respectively.

Consider `COc1cc(/C=C2\N=C(c3ccccc3)N(c3cc4cc(Sc5ccccc5)ccc4[nH]3)C2=O)ccc1O`, for which the GI50 is 13.6 µM (inactive) in assay [3] and 5.52 µM (inactive) in assay [2].

Turning to `CN(C)CCc1ccnc2nc(-c3ccc4ccccc4c3)cn12`, the GI50 in assay [1] was 17.8 µM (inactive); in assay [3] it was 23.4 µM (inactive); in assay [2] it was 34.9 µM (inactive).

With `CCOC(=O)c1[nH]cc(C)c1-c1c[nH]c2ccccc12`, the values for the GI50 in assay [1], in assay [3] and in assay [2] were 16.7 µM (inactive), 26.5 µM (inactive) and 36.3 µM (inactive), respectively.

In the case of `O=C1CS(=O)(=O)C(c2cccc(Oc3ccccc3)c2)N1c1ccc(Cl)cc1` (stereo not drawn), the figures for the GI50 in assay [1], in assay [3] and in assay [2] were 30.1 µM (inactive), 24.7 µM (inactive) and 10.9 µM (inactive), respectively.

Regarding `CC(C)C1=C2CCC3(C)C(CCC4C5C6OCC5(CCC6(C)C)CCC43C)C2(C)CC1` (stereo not drawn), the GI50 was 22.8 µM (inactive) in assay [1], 22.4 µM (inactive) in assay [3] and 27 µM (inactive) in assay [2].

In the case of `c1ccc2c(-c3cnc(-c4c[nH]c5ccccc45)cn3)c[nH]c2c1`, the GI50 in assay [1] was 57.8 µM (inactive); in assay [3], > 100 µM (inactive); in assay [2] it was 66.5 µM (inactive).

For `CC(C)C1OC(=O)/C=C/C=C/C=C/C=C/C=C/CC(O)CC(O)CC(O)CC(O)CC(O)CC(O)CC(O)CC(O)/C=C/C1C` (stereo not drawn), the GI50 in assay [3] is > 100 µM (inactive).

With `NNC(=O)c1c(-c2cccnc2)cnc2ccccc12`, the GI50 in assay [3] was > 100 µM (inactive).

With `COC(=O)C(N)CCCC(N)C(=O)NC(C)C(=O)NC(CCC(=O)NCCCNc1ccc([N+](=O)[O-])c2[nH]c3ccccc3c(=O)c12)C(N)=O` (stereo not drawn), the GI50 in assay [3] is 12.7 µM (inactive); in assay [2], 11.6 µM (inactive).

On to `CCCCCCCCCCCC(=O)N(CCCCCCCCCCC(=O)O)CC(O)C(O)C(OC1OC(CO)C(O)C(O)C1O)C(O)CO` (stereo not drawn), for which the GI50 in assay [1], in assay [3] and in assay [2] was > 100 µM (inactive) in each case.

On to `O=S(=O)(O)c1ccc2c(/N=N/c3ccc(S(=O)(=O)O)c4ccccc34)c(O)c(S(=O)(=O)O)cc2c1`, for which the GI50 in assay [1], in assay [3] and in assay [2] was > 100 µM (inactive) each time.

Turning to `COC(=O)[C@H](Cc1ccccc1)NC(=O)[C@H](Cc1ccccc1)NC(=O)[C@@H]1CCCN1C(=O)N[C@H]1C2C=CC(C2)C1C(=O)N1CCC[C@H]1C(=O)N[C@@H](C)C(=O)N[C@H](C(=O)OC)C(C)C` (stereo partly drawn), the GI50 in assay [1] is 59.6 µM (inactive); in assay [3], 40.9 µM (inactive); in assay [2], 60.1 µM (inactive).

With `COc1ccc(C2=C(OC(C)=O)c3cccn3-c3ccc(Cl)cc3S2)cc1`, in assay [2], the GI50 was 5.37 µM (inactive).

On to `Cc1[nH]n(-c2nc3c(c(=O)[nH]2)CCCC3)c(=O)c1CCO`, for which the GI50 in assay [1] and in assay [2] was > 100 µM (inactive) each time.

In the case of `CC(=O)OC(C)c1cc2c(s1)C(=O)c1scc(C(C)OC(C)=O)c1C2=O` (stereo not drawn), the GI50 in assay [1] is 0.339 µM (active); in assay [3] it was 0.218 µM (active); in assay [2] it was 0.661 µM (active).

As to `O=C1Nc2ccc(S(=O)(=O)O)cc2/C1=N/Nc1ccccc1[N+](=O)[O-]`, the GI50 in assay [1], in assay [3] and in assay [2] was > 100 µM (inactive) each time.

Consider `CCCCCCCC(=O)NC(C)(C)C(=O)NC(COC(C)(C)C)C(=O)NC(CC(C)C)C(=O)NC(C)(C)C(=O)NC(COC(C)(C)C)C(=O)NC(COC(C)(C)C)C(=O)NC(CC(C)C)C(=O)NC(C)(C)C(=O)NC(COC(C)(C)C)C(=O)NC(C(=O)NC(CC(C)C)C(=O)OC)C(C)CC` (stereo not drawn) (Octanoyl-[Aib]S(tBu)L[Aib]S(tBu)S(tBu)L[Aib]S(tBu)IL-OMe; configuration not given here), for which the values for the GI50 in assay [1], in assay [3] and in assay [2] were 8.85 µM (inactive), 5.38 µM (inactive) and 6.38 µM (inactive), respectively.

For the molecule `CCCCCCC(O)C(O)CCC(O)C1CCC(CCCCC(O)CC2=CC(C)OC2=O)O1` (stereo not drawn) [ACETOGENINS], the GI50 was 2.23 µM (inactive) in assay [1], 23.4 µM (inactive) in assay [3] and 3.13 µM (inactive) in assay [2].
